Data reported in article PMC6547740, “Potent and specific MTH1 inhibitors targeting gastric cancer” (Cell Death & Disease, 2019).

What was measured:
GES-1 cells [1] = assay: MTT cell viability, GES-1; type: cell-based; details: Homo sapiens, GES1, normal gastric epithelial cell line, 72 h
Procedure: (§1) The cell viability was determined by 3-(4,5-dimethylthiazol-2-yl)-2,5-diphenyltetrazolium bromide (MTT) assay, according to the manufacturer’s instructions. 1 day before treatment, cells were seeded into 96-well plates at a concentration of 2–5 × 10^3 cells per well, followed by treatment with fresh medium containing serial dilutions of candidate compounds for 48 or 72 h, 20 μL of MTT solution (5 mg/mL in PBS) was then added to each well. After treatment, the plates were incubated at 37 °C for another 4 h. Subsequently, the MTT solution was removed and 150 μL of DMSO was added to each well for 10 min, and then the plates were shaken to dissolve the dark blue crystal (formazan), the absorbance was detected at 570 nm using a BioTek microplate reader. The data were analyzed using SPSS 20 software.

SMMC-7721 cells = assay: MTT cell viability, SMMC-7721; type: cell-based; details: Homo sapiens, liver cancer cell line, 72 h
Procedure: as §1

EC109 cells = assay: MTT cell viability, EC109; type: cell-based; details: Homo sapiens, ECa-109, esophageal cancer cell line, 72 h
Procedure: as §1

EC9706 cells = assay: MTT cell viability, EC9706; type: cell-based; details: Homo sapiens, esophageal cancer cell line, 72 h
Procedure: as §1

KYSE-450 cells = assay: MTT cell viability, KYSE-450; type: cell-based; details: Homo sapiens, esophageal cancer cell line, 72 h
Procedure: as §1

MGC-803 cells [2] = assay: MTT cell viability, MGC-803; type: cell-based; details: Homo sapiens, gastric cancer cell line, 72 h
Procedure: as §1

HGC-27 cells [3] = assay: MTT cell viability, HGC-27; type: cell-based; details: Homo sapiens, gastric cancer cell line, 72 h
Procedure: as §1

MKN45 cells = assay: MTT cell viability, MKN45; type: cell-based; details: Homo sapiens, MKN-45, gastric cancer cell line, 72 h
Procedure: as §1

pc9 cells = assay: MTT cell viability, pc9; type: cell-based; details: Homo sapiens, PC-9, 72 h
Procedure: as §1

MCF-7 cells = assay: MTT cell viability, MCF-7; type: cell-based; details: Homo sapiens, MCF7, breast cancer cell line, 72 h
Procedure: as §1

MGC-803 cells [4] = assay: Colony formation assay, MGC-803; type: cell-based, human; details: MGC-803, 7 days treatment, compared with DMSO or MI-929
Procedure: (§2) The day before treatment, cells were seeded into six-well plates at a concentration of 1 × 10^3 cells per well, and then the media were replaced with fresh media containing serial concentrations of candidate compounds. After 7 days of treatment, the cells were fixed with 75% ethanol, stained with 0.1% crystal violet solution and captured by the microscopy (Leica). After that, the crystal violet crystals were dissolved by adding methanol. The absorbance at 595 nm was measured by a BioTek micro plate reader. In the end, the data were analyzed using the GraphPad Prism 5 software.

GES-1 cells [5] = assay: Colony formation assay, GES-1; type: cell-based, human; details: GES-1 gastric normal cells, 7 days treatment
Procedure: as §2

HGC-27 cells [6] = assay: Alkaline comet assay, HGC-27; type: cell-based, human; details: HGC-27, 10 µM, 48 h, compared with DMSO
Procedure: MGC-803 and HGC-27 cells were seeded into 6-well plates(1.5 × 10^5 cells/well) and cultured overnight. For siRNA experiments, the control siRNA and MTH1 siRNA were transfected into cells. For compounds experiments, cells were treated with candidate compounds MI-743 for 48 h before collection. For the H2O2 control, cells were treated with 100 µM H2O2 for 10 min. Subsequently, cells were harvested, washed and resuspended with PBS. After counting, cells were mixed with 1.2% low melting-temperature agarose at 37 °C. The mixtures were layered onto pre-warmed glass slides, which were pre-coated with 1% agarose. After adding coverslips, slides were kept in 4 °C immediately for 10-15 min, followed by immersing in pre-chilled lysis buffer(2.5 M NaCl, 0.1 M EDTA, 10 mM Tris-HCL pH 7.7, 1% Triton X-100, 1% DMSO)for 5-8 h. Then, slides were washed three times with enzyme reaction buffer (40 mM HEPES pH 8.0, 0.1 M KCl, 0.5 mM EDTA and 0.2 mg/mL BSA) and incubated for another 45 min in pre-chilled alkaline electrophoresis buffer (50 mM NaOH, 1 mM EDTA, 1% DMSO, pH12.8). After electrophoresis for 30 min at 25 V, slides were neutralized with 0.4 M Tris-HCl pH 7.0 for 1 h and stained with 1‰ EB for 5 min. At last, images were acquired using fluorescence microscope and analysised by CometScore software.

MGC-803 cells [7] = assay: Western blot of DNA damage response markers, MGC-803; type: cell-based, human; details: MGC-803, 1-12 µM 48 h or 12 µM 12-48 h, dose and time-dependently, vs DMSO
Procedure: MGC-803, HGC-27 and GES-1 cells were seeded into 100mm^2 plastic dishes(1 × 10^5 cells/well) and incubated overnight prior to the addition of compound MI-743 at 1, 2, 4, 8 and 12 µM for 48 h or compound MI-743 at 12 µM for 12, 24, 36 and 48 h, respectively. After treatment, the cells were harvested and lysed with RIPA cell lysis buffer, containing protease inhibitor cocktail. Then, the cells were centrifuged at 12,000 × g for 20 min at 4 °C. The supernatant were collected and the concentration was determined by a Bicinchoninic Acid (BCA) Protein Assay kit, denatured at 100 °C for 10 min, separated by SDS−PAGE and transferred to 0.22 μm nitrocellulose membranes. After blocking by PBS containing 5% skim milk for 2 h at room temperature, the membranes were probed with the appropriate primary antibodies (1:500~1:1000) at 4 °C overnight, followed by the treatment of horseradish-peroxidase-conjugated secondary antibody (1:10000) at room temperature for 2 h. Subsequently, the membranes were washed with PBST, examined by enhanced chemiluminescence and the data was determined using Image J software.

MTH1 = MTH1 (Homo sapiens, UniProt P36639); assay: Cellular thermal shift assay (CETSA), MTH1; type: binding; parameters: endogenous in cells; host or cells: MGC-803 (human gastric cancer cell line); details: MGC-803 cells, 50 µM compound, heated 10 min from 43 to 61 °C, western blot
Procedure: Cellular thermal shift assay (CETSA), also known as the target engagement assay was one-way to detect the intracellular interaction ability of compounds with its specific target. Firstly, cells were seeded into T75 culture flasks and cultured overnight. Then, the cells were treated with cell media containing 1‰ DMSO as blank control and candidate compounds for 3–5 h. Next, the cells were collected by centrifugation and resuspended by PBS, then the cells were aliquoted into 7 PCR tubes and heated using PCR instrument for 10 min from 43 to 61 °C. After that, cells were lysed using liquid nitrogen and three repeated cycles of freeze-thawing. Then, samples were centrifuged at 12,000 × g for 20 min at 4 °C. Supernatants were denatured at 100 °C for 10 min and kept at −20 °C until Western Blot analysis.

C#CCSc1nc(NNC(N)=S)c(C#N)c(-c2ccc3oc(=O)ccc3c2)n1 [MI-743, 2-(5-cyano-6-(2-oxo-2H-chromen-6-yl)-2-(prop-2-yn-1-ylthio)pyrimidin-4-yl)hydrazine-1-carbothioamide]
IC50 (GES-1 cells [1]): 25.5 ± 1.02 µM | IC50 (SMMC-7721 cells): 5.39 ± 0.73 µM | IC50 (EC109 cells): 6.99 ± 0.84 µM | IC50 (EC9706 cells): 8.35 ± 0.92 µM | IC50 (KYSE-450 cells): 6.69 ± 0.82 µM | IC50 (MGC-803 cells [2]): 2.91 ± 0.46 µM | IC50 (HGC-27 cells [3]): 1.14 ± 0.16 µM | IC50 (MKN45 cells): 16 ± 1.18 µM | IC50 (pc9 cells): 9.53 ± 0.98 µM | IC50 (MCF-7 cells): 9.67 ± 1.01 µM | colony formation (MGC-803 cells [4]): smaller and fewer colonies | colony formation (GES-1 cells [5]): no obviously inhibitory effect | comet tail moment (HGC-27 cells [6]): significantly elevated | expression levels of p53pS15, ATMpS1981 and p21 (MGC-803 cells [7]): significantly increased | incubation temperature until which MTH1 was stable (MTH1): 61 °C
